Tests used:
[1] = tested on: MDA-MB-453 cell line (FGFR4-Y367C); assay: Cancer cell line cell viability assay (Cell Titer-Glo), 120 hr; type: cell-based; conditions: Homo sapiens
Method in brief: (§1)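 Intracellular ATP was measured by Cell Titer-Glo 2.0 luminescence after cells were incubated with compound dilutions (top 3 μM, 4-fold, 9 doses). Values were expressed relative to DMSO-treated cells and IC50 was calculated from a variable-slope dose-response curve.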

[2] = tested on: HuH7 cell line (FGF19 amplification); assay: as above; type: cell-based; conditions: Homo sapiens, Huh-7
Method in brief: as §1

FGFR4 = biological target: T1, FGFR4 (Homo sapiens, UniProt P22455); assay: Kinase binding assay (kinase-tagged T7 phage, affinity beads, qPCR), Kd; conditions: read-out: FGFR4 (Kd nM)
T1 construct: made in house; host or cells: E. coli (BL21-derived), T7 phage
Method in brief: (§2)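 T7 phage displaying each kinase, grown in a BL21-derived E. coli host at 32° C until lysis, competed with test compound for biotinylated ligand immobilised on streptavidin beads. Bead-bound kinase was eluted and quantified by qPCR. Kd came from an 11-point 3-fold dilution series fitted to the Hill equation with slope fixed at −1.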

FGFR1 = biological target: T2, FGFR1 (Homo sapiens, UniProt P11362); assay: as above; conditions: read-out: FGFR1 (Kd nM)
T2 construct: made in house; host or cells: E. coli (BL21-derived), T7 phage
Method in brief: as §2

FGFR2 = biological target: T3, FGFR2 (Homo sapiens, UniProt P21802); assay: as above; conditions: read-out: FGFR2 (Kd nM)
T3 construct: made in house; host or cells: E. coli (BL21-derived), T7 phage
Method in brief: as §2

FGFR3 (V555M) = biological target: T4, FGFR3 (V555M) (Homo sapiens, UniProt P22607, V555M); assay: as above; conditions: V555M mutant; read-out: FGFR3 (V555M) (Kd nM)
T4 construct: made in house; host or cells: E. coli (BL21-derived), T7 phage
Method in brief: as §2

FGFR3 = biological target: T5, FGFR3 (Homo sapiens, UniProt P22607); assay: as above; conditions: read-out: FGFR3 (Kd nM)
T5 construct: made in house; host or cells: E. coli (BL21-derived), T7 phage
Method in brief: as §2

[3] = tested on: RT112/84 cell line (FGFR3-fusion); assay: Cancer cell line cell viability assay (Cell Titer-Glo), 72 hr; type: cell-based; conditions: Homo sapiens, RT112/84, RT112/84 cell line (FGFR3-fusion)
Method in brief: as §1

[4] = tested on: KATO-III cell line (FGFR2 amplification); assay: as above; type: cell-based; conditions: Homo sapiens, KATO III
Method in brief: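 Cells seeded at 5,000-20,000/well, incubated overnight, then treated with a 9-dose, 4-fold dilution series from 3 μM in triplicate at 37° C, 5% CO2. Viability read by Cell Titer-Glo 2.0 luminescence as percent of DMSO control; IC50 from 4-parameter variable-slope sigmoidal fit.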

[5] = tested on: KG-1 cell line (FGFR 1-fusion); assay: as above; type: cell-based; conditions: Homo sapiens, KG-1, KG-1 cell line (FGFR1-fusion)
Method in brief: as §1

T1 sequence (P22455 22-802): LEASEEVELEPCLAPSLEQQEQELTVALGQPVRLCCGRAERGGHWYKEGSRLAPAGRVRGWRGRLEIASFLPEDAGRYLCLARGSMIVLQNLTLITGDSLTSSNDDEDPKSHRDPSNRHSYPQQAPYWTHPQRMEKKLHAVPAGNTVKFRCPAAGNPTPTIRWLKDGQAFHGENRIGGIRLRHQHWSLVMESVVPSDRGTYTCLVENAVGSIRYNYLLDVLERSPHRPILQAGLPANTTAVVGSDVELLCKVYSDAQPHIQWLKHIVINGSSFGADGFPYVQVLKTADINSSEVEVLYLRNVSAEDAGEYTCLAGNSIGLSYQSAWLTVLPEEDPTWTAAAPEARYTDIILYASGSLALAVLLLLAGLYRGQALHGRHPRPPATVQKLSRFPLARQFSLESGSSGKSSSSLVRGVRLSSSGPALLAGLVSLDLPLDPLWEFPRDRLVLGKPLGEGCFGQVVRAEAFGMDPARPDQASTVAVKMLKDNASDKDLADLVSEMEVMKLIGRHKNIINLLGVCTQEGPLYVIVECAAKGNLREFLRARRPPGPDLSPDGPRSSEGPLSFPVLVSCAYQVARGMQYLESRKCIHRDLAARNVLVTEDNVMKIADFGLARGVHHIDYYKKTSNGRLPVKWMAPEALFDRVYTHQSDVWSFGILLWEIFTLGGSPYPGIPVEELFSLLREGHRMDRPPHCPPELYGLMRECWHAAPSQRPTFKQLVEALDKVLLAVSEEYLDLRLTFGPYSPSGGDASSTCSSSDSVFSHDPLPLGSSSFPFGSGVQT
T5 sequence (P22607 23-806): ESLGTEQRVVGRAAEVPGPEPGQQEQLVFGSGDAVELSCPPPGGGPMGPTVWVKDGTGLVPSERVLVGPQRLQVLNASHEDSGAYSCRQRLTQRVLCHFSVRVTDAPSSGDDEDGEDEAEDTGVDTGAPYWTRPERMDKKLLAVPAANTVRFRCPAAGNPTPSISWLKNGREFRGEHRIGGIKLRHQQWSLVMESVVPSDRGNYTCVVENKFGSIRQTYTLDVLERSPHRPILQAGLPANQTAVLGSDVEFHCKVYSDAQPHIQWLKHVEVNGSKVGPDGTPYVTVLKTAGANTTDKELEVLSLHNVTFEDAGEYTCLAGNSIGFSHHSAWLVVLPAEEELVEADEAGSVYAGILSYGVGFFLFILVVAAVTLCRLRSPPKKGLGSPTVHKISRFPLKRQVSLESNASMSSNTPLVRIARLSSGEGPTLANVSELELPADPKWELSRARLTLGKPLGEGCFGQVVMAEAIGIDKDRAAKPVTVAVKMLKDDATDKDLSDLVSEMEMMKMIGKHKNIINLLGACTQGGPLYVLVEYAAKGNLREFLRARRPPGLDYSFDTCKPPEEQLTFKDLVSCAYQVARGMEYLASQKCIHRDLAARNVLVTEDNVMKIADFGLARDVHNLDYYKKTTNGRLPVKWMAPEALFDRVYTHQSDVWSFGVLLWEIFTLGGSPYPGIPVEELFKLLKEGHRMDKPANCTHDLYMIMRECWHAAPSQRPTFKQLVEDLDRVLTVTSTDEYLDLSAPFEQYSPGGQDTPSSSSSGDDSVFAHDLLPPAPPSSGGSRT
T2 sequence (P11362 22-822): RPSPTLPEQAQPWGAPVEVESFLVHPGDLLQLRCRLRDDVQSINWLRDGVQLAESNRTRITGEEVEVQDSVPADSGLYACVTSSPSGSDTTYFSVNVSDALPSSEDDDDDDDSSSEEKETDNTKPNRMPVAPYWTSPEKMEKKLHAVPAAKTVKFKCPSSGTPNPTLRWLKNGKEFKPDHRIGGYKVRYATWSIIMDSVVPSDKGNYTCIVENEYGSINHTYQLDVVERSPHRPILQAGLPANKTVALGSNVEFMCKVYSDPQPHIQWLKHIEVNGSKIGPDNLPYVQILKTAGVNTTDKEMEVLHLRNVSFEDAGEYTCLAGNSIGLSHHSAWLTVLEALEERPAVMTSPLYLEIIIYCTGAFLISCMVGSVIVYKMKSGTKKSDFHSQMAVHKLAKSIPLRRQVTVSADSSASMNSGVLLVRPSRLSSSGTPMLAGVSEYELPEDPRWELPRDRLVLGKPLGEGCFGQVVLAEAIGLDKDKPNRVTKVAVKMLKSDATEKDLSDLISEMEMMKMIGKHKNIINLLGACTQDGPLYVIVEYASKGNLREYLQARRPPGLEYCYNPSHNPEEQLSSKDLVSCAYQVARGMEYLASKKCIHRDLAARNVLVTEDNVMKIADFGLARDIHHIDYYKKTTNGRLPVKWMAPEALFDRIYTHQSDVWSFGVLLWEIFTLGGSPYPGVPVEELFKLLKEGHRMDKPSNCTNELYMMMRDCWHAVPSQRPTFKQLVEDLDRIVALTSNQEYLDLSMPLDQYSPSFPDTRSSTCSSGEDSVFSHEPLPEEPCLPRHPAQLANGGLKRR
T3 sequence (P21802 22-821): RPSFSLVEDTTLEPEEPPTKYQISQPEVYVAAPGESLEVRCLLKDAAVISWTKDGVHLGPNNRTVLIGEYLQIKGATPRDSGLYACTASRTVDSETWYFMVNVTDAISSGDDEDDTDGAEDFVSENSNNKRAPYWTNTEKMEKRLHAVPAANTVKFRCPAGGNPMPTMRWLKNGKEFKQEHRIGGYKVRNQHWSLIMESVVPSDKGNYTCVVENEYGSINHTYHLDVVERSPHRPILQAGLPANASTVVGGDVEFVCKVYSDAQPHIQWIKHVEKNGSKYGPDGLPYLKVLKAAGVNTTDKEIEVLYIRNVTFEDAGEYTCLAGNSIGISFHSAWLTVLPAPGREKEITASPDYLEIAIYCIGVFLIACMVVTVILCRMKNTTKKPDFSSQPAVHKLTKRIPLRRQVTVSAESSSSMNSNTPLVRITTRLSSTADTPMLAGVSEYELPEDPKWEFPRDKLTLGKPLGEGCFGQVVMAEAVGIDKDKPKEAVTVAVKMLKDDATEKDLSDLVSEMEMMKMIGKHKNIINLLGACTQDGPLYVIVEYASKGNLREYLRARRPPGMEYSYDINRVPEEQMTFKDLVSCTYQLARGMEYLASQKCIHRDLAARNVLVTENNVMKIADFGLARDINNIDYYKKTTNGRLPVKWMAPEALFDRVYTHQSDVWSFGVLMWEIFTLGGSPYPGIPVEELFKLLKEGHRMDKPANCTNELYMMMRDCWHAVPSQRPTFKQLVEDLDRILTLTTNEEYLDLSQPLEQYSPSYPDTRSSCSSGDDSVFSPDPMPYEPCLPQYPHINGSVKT
T4 sequence (P22607 23-806 V555M): as the sequence (P22607 23-806) above, with V533M counted along it

`C=CCNC1(C)CN(c2ncc(-c3n[nH]c4ccc(O[C@H](C)c5c(Cl)cncc5Cl)cc34)cc2F)C1` [Example 148, (R)-N-ally1-1-(5-(5-(1-(3,5-dichloropyridin-4-yl)ethoxy)-1H-indazol-3-yl)-3-fluoropyridin-2-yl)-3-methylazetidin-3-amine] gave an IC50 [1] of 50 to 200 nM, an IC50 [2] of 0.1 to 50 nM and a Kd (FGFR4) of 1 to 50 nM. For the same compound, the Kd (FGFR1) was 1 to 50 nM, the Kd (FGFR2) was 1 to 50 nM and the Kd (FGFR3 (V555M)) was 1 to 50 nM. The Kd (FGFR3) was 1 to 50 nM, the IC50 [3] was 0.1 to 50 nM and the IC50 [4] was 50 to 200 nM. It also gave an IC50 [5] of 50 to 200 nM.
In the case of `CC[C@@H](C)NC1(C)CN(c2ncc(-c3n[nH]c4ccc(O[C@H](C)c5c(Cl)cncc5Cl)cc34)cc2F)C1` [Example 140, 1-[5-[5-[(1R)-1-(3,5-dichloro-4-pyridyl)ethoxy]-1H-indazol-3-yl]-3-fluoro-2-pyridyl]-3-methyl-N-[(1R)-1-methylpropyl]azetidin-3-amine], the IC50 [1] is reported as 50 to 200 nM, the IC50 [2] is reported as 0.1 to 50 nM and the Kd (FGFR4) is reported as 1 to 50 nM. The Kd (FGFR1) was 1 to 50 nM, the Kd (FGFR2) was 1 to 50 nM and the Kd (FGFR3 (V555M)) was 1 to 50 nM. It also gave a Kd (FGFR3) of 1 to 50 nM, an IC50 [3] of 0.1 to 50 nM and an IC50 [4] of 50 to 200 nM. It also gave an IC50 [5] of 50 to 200 nM.
`COc1cc2[nH]nc(-c3cnc(N4CC(C)(CP(C)(C)=O)C4)c(C#N)c3)c2cc1O[C@H](C)c1c(Cl)cncc1Cl` [Example 53, (R)-5-(5-(1-(3,5-Dichloropyridin-4-yl)ethoxy)-6-methoxy-1H-indazol-3-yl)-2-(3-((dimethylphosphoryl)methyl)-3-methylazetidin-1-yl)nicotinonitrile] showed an IC50 [1] of 0.1 to 50 nM, an IC50 [2] of 0.1 to 50 nM and a Kd (FGFR4) of 1 to 50 nM. For the same compound, the Kd (FGFR1) was 1 to 50 nM, the Kd (FGFR2) was 1 to 50 nM and the Kd (FGFR3 (V555M)) was 1 to 50 nM. For the same compound, the Kd (FGFR3) was 1 to 50 nM, the IC50 [3] was 50 to 200 nM and the IC50 [4] was 50 to 200 nM. The IC50 [5] was 200 to 1000 nM.
For `C[C@@H](Oc1ccc2[nH]nc(-c3ccc(N4C[C@@H](CS(C)(=O)=O)[C@@H]4C)nc3)c2c1)c1c(Cl)cncc1Cl` [Example 203, 5-((R)-1-(3,5-dichloropyridin-4-yl)ethoxy)-3-(6-((2S,3R)-2-methyl-3-((methyl-sulfonyl)meth-yl)azetidin-1-yl)pyridin-3-yl)-1H-indazole], the IC50 [1] was 50 to 200 nM, the IC50 [2] was 0.1 to 50 nM and the Kd (FGFR4) was 1 to 50 nM. It also gave a Kd (FGFR1) of 1 to 50 nM, a Kd (FGFR2) of 1 to 50 nM and a Kd (FGFR3 (V555M)) of 1 to 50 nM. For the same compound, the Kd (FGFR3) was 1 to 50 nM, the IC50 [3] was 0.1 to 50 nM and the IC50 [4] was 0.1 to 50 nM. The IC50 [5] was 50 to 200 nM.
In the case of `COc1cc2[nH]nc(-c3cnc(N4CC(C)(NCC5CC5)C4)c(C#N)c3)c2cc1O[C@H](C)c1c(Cl)cncc1Cl` [Example 14, 2-[3-(cyclopropylmethylamino)-3-methyl-azetidin-1-yl]-5-[5-[(1R)-1-(3,5-dichloro-4-pyridyl)ethoxy]-6-methoxy-1H-indazol-3-yl]pyridine-3-carbonitrile], the IC50 [1] is reported as 0.1 to 50 nM, the IC50 [2] is reported as 0.1 to 50 nM and the Kd (FGFR4) is reported as 1 to 50 nM. It also gave a Kd (FGFR1) of 1 to 50 nM, a Kd (FGFR2) of 1 to 50 nM and a Kd (FGFR3 (V555M)) of 1 to 50 nM. The Kd (FGFR3) was 1 to 50 nM, the IC50 [3] was 0.1 to 50 nM and the IC50 [4] was 50 to 200 nM. It also gave an IC50 [5] of 50 to 200 nM.
`C[C@@H](Oc1ccc2[nH]nc(-c3cnc(N4CC(C)(N5CCP(C)(=O)CC5)C4)c(F)c3)c2c1)c1c(Cl)cncc1Cl` [Example 198, (R)-1-(1-(5-(5-(1-(3,5-dichloropyridin-4-yl)ethoxy)-1H-indazol-3-yl)-3-fluoropyridin-2-yl)-3-methylazetidin-3-yl)-4-methyl-1,4-azaphosphinane 4-oxide] gave an IC50 [1] of 0.1 to 50 nM, an IC50 [2] of 0.1 to 50 nM and a Kd (FGFR4) of 1 to 50 nM. For the same compound, the Kd (FGFR1) was 1 to 50 nM, the Kd (FGFR2) was 1 to 50 nM and the Kd (FGFR3 (V555M)) was 1 to 50 nM. For the same compound, the Kd (FGFR3) was 1 to 50 nM, the IC50 [3] was 0.1 to 50 nM and the IC50 [4] was 0.1 to 50 nM. It also gave an IC50 [5] of 200 to 1000 nM.
`COc1cc2[nH]nc(-c3cnc(N4CC(C)(NC(C)C)C4)c(C#N)c3)c2cc1O[C@H](C)c1c(Cl)cncc1Cl` [Example 8, (R)-5-(5-(1-(3,5-Dichloropyridin-4-yl)ethoxy)-6-methoxy-1H-indazol-3-yl)-2-(3-(isopropylamino)-3-methylazetidin-1-yl)nicotinonitrile] gave an IC50 [1] of 0.1 to 50 nM, an IC50 [2] of 0.1 to 50 nM and a Kd (FGFR4) of 1 to 50 nM. It also gave a Kd (FGFR1) of 1 to 50 nM, a Kd (FGFR2) of 1 to 50 nM and a Kd (FGFR3 (V555M)) of 1 to 50 nM. The Kd (FGFR3) was 1 to 50 nM, the IC50 [3] was 0.1 to 50 nM and the IC50 [4] was 50 to 200 nM. For the same compound, the IC50 [5] was 50 to 200 nM.
Compound `C[C@@H]1[C@@H](CS(C)(=O)=O)CN1c1ccc(-c2n[nH]c3ccc(O[C@H](C)c4c(Cl)cncc4Cl)cc23)cn1` [Example 204, 5-((R)-1-(3,5-dichloropyridin-4-yl)ethoxy)-3-(6-((2R,3S)-2-methyl-3-((methyl-sulfonyl)meth-yl)azetidin-1-yl)pyridin-3-yl)-1H-indazole] has an IC50 [1] of 50 to 200 nM, an IC50 [2] of 0.1 to 50 nM and a Kd (FGFR4) of 1 to 50 nM. For the same compound, the Kd (FGFR1) was 1 to 50 nM, the Kd (FGFR2) was 1 to 50 nM and the Kd (FGFR3 (V555M)) was 1 to 50 nM. For the same compound, the Kd (FGFR3) was 1 to 50 nM, the IC50 [3] was 0.1 to 50 nM and the IC50 [4] was 0.1 to 50 nM. For the same compound, the IC50 [5] was 50 to 200 nM.
`C[C@@H](Oc1ccc2[nH]nc(-c3cnc(N4CC(C)(N5CCOCC5)C4)c(F)c3)c2c1)c1c(Cl)cncc1Cl` [Example 80, (R)-4-(1-(5-(5-(1-(3,5-Dichloropyridin-4-yl)ethoxy)-1H-indazol-3-yl)-3-fluoropyridin-2-yl)-3-methylazetidin-3-yl)morpholine] was tested, and the IC50 [1] was 0.1 to 50 nM, the IC50 [2] was 0.1 to 50 nM and the Kd (FGFR4) was 1 to 50 nM. For the same compound, the Kd (FGFR1) was 1 to 50 nM, the Kd (FGFR2) was 1 to 50 nM and the Kd (FGFR3 (V555M)) was 1 to 50 nM. The Kd (FGFR3) was 1 to 50 nM, the IC50 [3] was 0.1 to 50 nM and the IC50 [4] was 0.1 to 50 nM. For the same compound, the IC50 [5] was 50 to 200 nM.
In the case of `COc1cc2[nH]nc(-c3cnc(N4CC(C)(N5CCOCC5)C4)c(C#N)c3)c2cc1O[C@H](C)c1c(Cl)cncc1Cl` [Example 16, (R)-5-(5-(1-(3,5-dichloropyridin-4-yl)ethoxy)-6-methoxy-1H-indazol-3-yl)-2-(3-methyl-3-morpholinoazetidin-1-yl)nicotinonitrile], the IC50 [1] is reported as 0.1 to 50 nM, the IC50 [2] is reported as 0.1 to 50 nM and the Kd (FGFR4) is reported as 1 to 50 nM. The Kd (FGFR1) was 1 to 50 nM, the Kd (FGFR2) was 1 to 50 nM and the Kd (FGFR3 (V555M)) was 1 to 50 nM. For the same compound, the Kd (FGFR3) was 1 to 50 nM, the IC50 [3] was 0.1 to 50 nM and the IC50 [4] was 50 to 200 nM. It also gave an IC50 [5] of 50 to 200 nM.
`CCCNC1(C)CN(c2ncc(-c3n[nH]c4ccc(O[C@H](C)c5c(Cl)cncc5Cl)cc34)cc2F)C1` [Example 142, 1-[5-[5-[(1R)-1-(3,5-dichloro-4-pyridyl)ethoxy]-1H-indazol-3-yl]-3-fluoro-2-pyridyl]-3-methyl-N-propyl-azetidin-3-amine] was tested, and the IC50 [1] was 50 to 200 nM, the IC50 [2] was 0.1 to 50 nM and the Kd (FGFR4) was 1 to 50 nM. The Kd (FGFR1) was 1 to 50 nM, the Kd (FGFR2) was 1 to 50 nM and the Kd (FGFR3 (V555M)) was 1 to 50 nM. It also gave a Kd (FGFR3) of 1 to 50 nM, an IC50 [3] of 0.1 to 50 nM and an IC50 [4] of 50 to 200 nM. For the same compound, the IC50 [5] was 50 to 200 nM.
In the case of `COc1cc2[nH]nc(-c3cnc(N4CC(C)(NCC(C)(C)O)C4)c(C#N)c3)c2cc1O[C@H](C)c1c(Cl)cncc1Cl` [Example 55, (R)-5-(5-(1-(3,5-dichloropyridin-4-yl)ethoxy)-6-methoxy-1H-indazol-3-yl)-2-(3-((2-hydroxy-2-methylpropyl)amino)-3-methylazetidin-1-yl)nicotinonitrile], the IC50 [1] is reported as 0.1 to 50 nM, the IC50 [2] is reported as 0.1 to 50 nM and the Kd (FGFR4) is reported as 1 to 50 nM. It also gave a Kd (FGFR1) of 1 to 50 nM, a Kd (FGFR2) of 1 to 50 nM and a Kd (FGFR3 (V555M)) of 1 to 50 nM. For the same compound, the Kd (FGFR3) was 1 to 50 nM, the IC50 [3] was 0.1 to 50 nM and the IC50 [4] was 50 to 200 nM. For the same compound, the IC50 [5] was 50 to 200 nM.
